Target: human APJ receptor (Homo sapiens (Human), UniProt P35414)
Test: [35S]GTPγS binding assay on membranes from CHO cells stably expressing human APJ receptor
Type: biochemical
Settings: membranes of CHO cells stably expressing human APJ receptor, read-out: Activity hAPJ SPA EC50 IP
Method: The human APJ receptor was cloned by polymerase chain reaction and the gene encoding the receptor was subcloned in pFLAG-CMV™-3 expression vector (Sigma, Saint Louis, Mo. USA) in-house at Amgen. A GTPγS binding assay was performed on membranes prepared from CHO cells stably expressing human APJ receptor. The optimum experimental conditions for the concentrations of GDP, MgCl2, and NaCl in the assay buffer were initially determined. […] Incubation was at RT for 90 min and the microplate was read using a ViewLux™ ultra HTS Microplate Imager (PerkinElmer, Inc.). All the results presented are means of several independent experiments and analyzed by non-linear regression methods using the commercially available program Prism (GraphPad, San Diego, Calif.) providing the EC50 values detailed in Table 27.

Chain of human APJ receptor (P35414 whole entry): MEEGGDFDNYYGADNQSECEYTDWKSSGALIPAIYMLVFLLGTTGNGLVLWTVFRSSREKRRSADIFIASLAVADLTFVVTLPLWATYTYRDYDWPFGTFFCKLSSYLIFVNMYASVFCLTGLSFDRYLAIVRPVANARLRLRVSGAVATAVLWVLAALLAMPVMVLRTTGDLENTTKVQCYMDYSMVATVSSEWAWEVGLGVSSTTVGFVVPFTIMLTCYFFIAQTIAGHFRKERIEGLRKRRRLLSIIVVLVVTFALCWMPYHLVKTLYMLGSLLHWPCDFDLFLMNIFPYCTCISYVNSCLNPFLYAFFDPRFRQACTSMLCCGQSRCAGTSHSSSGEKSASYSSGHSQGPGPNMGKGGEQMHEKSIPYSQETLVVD

Compound | EC50 [nM]
CO[C@H](c1ncc(Cl)cn1)[C@H](C)S(=O)(=O)Nc1nnc(-c2cncc(C)c2)n1C1CC12CC2 (mixture of isomers) [Example 150.0, (1R,2S)-1-(5-Chloropyrimidin-2-yl)-1-methoxy-N-(5-(5-methylpyridin-3-yl)-4-((R)-spiro[2.2]pentan-1-yl)-4H-1,2,4-triazol-3-yl)propane-2-sulfonamide and (1R,2S)-1-(5-chloropyrimidin-2-yl)-1-methoxy-N-(5-(5-methylpyridin-3-yl)-4-((S)-spiro[2.2]pentan-1-yl)-4H-1,2,4-triazol-3-yl)propane-2-sulfonamide] | 100
COc1cccc(-c2nnc(NS(=O)(=O)[C@@H](C)[C@H](OC)c3ncc(Cl)cn3)n2C2CC2(F)F)n1 (mixture of isomers) [Example 156.0, (1R,2S)-1-(5-Chloropyrimidin-2-yl)-N-(4-((S)-2,2-difluorocyclopropyl)-5-(6-methoxypyridin-2-yl)-4H-1,2,4-triazol-3-yl)-1-methoxypropane-2-sulfonamide and (1R,2S)-1-(5-chloropyrimidin-2-yl)-N-(4-((R)-2,2-difluorocyclopropyl)-5-(6-methoxypyridin-2-yl)-4H-1,2,4-triazol-3-yl)-1-methoxypropane-2-sulfonamide] | 37
COc1cccc(-c2nnc(NS(=O)(=O)[C@@H](C)[C@H](OC)c3ncc(Cl)cn3)n2[C@@H](C)c2ccno2)n1 (mixture of isomers) [Example 200.0, (1R,2S)-1-(5-chloro-2-pyrimidinyl)-1-methoxy-N-(5-(6-methoxy-2-pyridinyl)-4-((1R)-1-(1,2-oxazol-5-yl)ethyl)-4H-1,2,4-triazol-3-yl)-2-propanesulfonamide and (1R,2S)-1-(5-chloro-2-pyrimidinyl)-1-methoxy-N-(5-(6-methoxy-2-pyridinyl)-4-((1S)-1-(1,2-oxazol-5-yl)ethyl)-4H-1,2,4-triazol-3-yl)-2-propanesulfonamide] | 0.87
COc1cccc(-c2nnc(NS(=O)(=O)[C@@H](C)[C@H](C)c3ncc(Cl)cn3)n2[C@@H](C)c2ccno2)n1 (mixture of isomers) [Example 201.0, (2S,3R)-3-(5-chloro-2-pyrimidinyl)-N-(5-(6-methoxy-2-pyridinyl)-4-((1R)-1-(1,2-oxazol-5-yl)ethyl)-4H-1,2,4-triazol-3-yl)-2-butanesulfonamide and (2S,3R)-3-(5-chloro-2-pyrimidinyl)-N-(5-(6-methoxy-2-pyridinyl)-4-((1S)-1-(1,2-oxazol-5-yl)ethyl)-4H-1,2,4-triazol-3-yl)-2-butanesulfonamide] | 3.5
CC[C@H](c1c(C)noc1C)n1c(NS(=O)(=O)[C@@H](C)[C@H](OC)c2cnc(C)cn2)nnc1-c1cccc(OC)n1 (mixture of isomers) [Example 208.0, (1R,2S)-N-(4-((1R)-1-(3,5-dimethyl-1,2-oxazol-4-yl)propyl)-5-(6-methoxy-2-pyridinyl)-4H-1,2,4-triazol-3-yl)-1-methoxy-1-(5-methyl-2-pyrazinyl)-2-propanesulfonamide and (1R,2S)-N-(4-((1S)-1-(3,5-dimethyl-1,2-oxazol-4-yl)propyl)-5-(6-methoxy-2-pyridinyl)-4H-1,2,4-triazol-3-yl)-1-methoxy-1-(5-methyl-2-pyrazinyl)-2-propanesulfonamide] | 42
CC[C@H](c1c(C)noc1C)n1c(NS(=O)(=O)[C@@H](C)[C@@H](OC(C)C)c2ncc(C)cn2)nnc1-c1cccc(OC)n1 (mixture of isomers) [Example 209.0, (1S,2S)-N-(4-((1R)-1-(3,5-dimethyl-1,2-oxazol-4-yl)propyl)-5-(6-methoxy-2-pyridinyl)-4H-1,2,4-triazol-3-yl)-1-(5-methyl-2-pyrimidinyl)-1-(2-propanyloxy)-2-propanesulfonamide and (1S,2S)-N-(4-((1S)-1-(3,5-dimethyl-1,2-oxazol-4-yl)propyl)-5-(6-methoxy-2-pyridinyl)-4H-1,2,4-triazol-3-yl)-1-(5-methyl-2-pyrimidinyl)-1-(2-propanyloxy)-2-propanesulfonamide] | 14
CC[C@H](c1c(C)noc1C)n1c(NS(=O)(=O)[C@@H](C)[C@H](C)c2ncc(Cl)cn2)nnc1-c1cccc(OC)n1 (mixture of isomers) [Example 210.0, (2S,3R)-3-(5-chloro-2-pyrimidinyl)-N-(4-((1R)-1-(3,5-dimethyl-1,2-oxazol-4-yl)propyl)-5-(6-methoxy-2-pyridinyl)-4H-1,2,4-triazol-3-yl)-2-butanesulfonamide and (2S,3R)-3-(5-chloro-2-pyrimidinyl)-N-(4-((1S)-1-(3,5-dimethyl-1,2-oxazol-4-yl)propyl)-5-(6-methoxy-2-pyridinyl)-4H-1,2,4-triazol-3-yl)-2-butanesulfonamide] | 5.3
CC[C@H](c1c(C)noc1C)n1c(NS(=O)(=O)[C@@H](C)[C@H](OC)c2ncc(Cl)cn2)nnc1-c1cccc(OC)n1 (mixture of isomers) [Example 211.0, (1R,2S)-1-(5-chloro-2-pyrimidinyl)-N-(4-((1R)-1-(3,5-dimethyl-1,2-oxazol-4-yl)propyl)-5-(6-methoxy-2-pyridinyl)-4H-1,2,4-triazol-3-yl)-1-methoxy-2-propanesulfonamide and (1R,2S)-1-(5-chloro-2-pyrimidinyl)-N-(4-((1S)-1-(3,5-dimethyl-1,2-oxazol-4-yl)propyl)-5-(6-methoxy-2-pyridinyl)-4H-1,2,4-triazol-3-yl)-1-methoxy-2-propanesulfonamide] | 1.8
COc1cccc(-c2nnc(NS(=O)(=O)[C@@H](C)[C@@H](OC(C)C)c3ncc(C)cn3)n2[C@H](c2conc2C)C2CC2)n1 (mixture of isomers) [Example 226.0, (1S,2S)-N-(4-((R)-cyclopropyl(3-methyl-1,2-oxazol-4-yl)methyl)-5-(6-methoxy-2-pyridinyl)-4H-1,2,4-triazol-3-yl)-1-(5-methyl-2-pyrimidinyl)-1-(2-propanyloxy)-2-propanesulfonamide and (1S,2S)-N-(4-((S)-cyclopropyl(3-methyl-1,2-oxazol-4-yl)methyl)-5-(6-methoxy-2-pyridinyl)-4H-1,2,4-triazol-3-yl)-1-(5-methyl-2-pyrimidinyl)-1-(2-propanyloxy)-2-propanesulfonamide] | 0.88
CC[C@@H](c1conc1C)n1c(NS(=O)(=O)[C@@H](C)[C@H](C)c2ncc(Cl)cn2)nnc1-c1cccc(OC)n1 (mixture of isomers) [Example 227.0, (2S,3R)-3-(5-chloro-2-pyrimidinyl)-N-(5-(6-methoxy-2-pyridinyl)-4-((1R)-1-(3-methyl-1,2-oxazol-4-yl)propyl)-4H-1,2,4-triazol-3-yl)-2-butanesulfonamide and (2S,3R)-3-(5-chloro-2-pyrimidinyl)-N-(5-(6-methoxy-2-pyridinyl)-4-((1S)-1-(3-methyl-1,2-oxazol-4-yl)propyl)-4H-1,2,4-triazol-3-yl)-2-butanesulfonamide] | 4.5
COc1cccc(-c2nnc(NS(=O)(=O)[C@@H](C)[C@H](C)c3ncc(Cl)cn3)n2[C@H](c2conc2C)C2CC2)n1 (mixture of isomers) [Example 228.0, (2S,3R)-3-(5-chloro-2-pyrimidinyl)-N-(4-((S)-cyclopropyl(3-methyl-1,2-oxazol-4-yl)methyl)-5-(6-methoxy-2-pyridinyl)-4H-1,2,4-triazol-3-yl)-2-butanesulfonamide and (2S,3R)-3-(5-chloro-2-pyrimidinyl)-N-(4-((R)-cyclopropyl(3-methyl-1,2-oxazol-4-yl)methyl)-5-(6-methoxy-2-pyridinyl)-4H-1,2,4-triazol-3-yl)-2-butanesulfonamide] | 0.88
CO[C@H](c1ncc(Cl)cn1)[C@H](C)S(=O)(=O)Nc1nnc(-c2cncc(C)c2)n1C[C@H]1CCCCO1 (mixture of isomers) [Example 299.0, (1R,2S)-1-(5-chloropyrimidin-2-yl)-1-methoxy-N-(5-(5-methylpyridin-3-yl)-4-(((R)-tetrahydro-2H-pyran-2-yl)methyl)-4H-1,2,4-triazol-3-yl)propane-2-sulfonamide and (1R,2S)-1-(5-chloropyrimidin-2-yl)-1-methoxy-N-(5-(5-methylpyridin-3-yl)-4-(((S)-tetrahydro-2H-pyran-2-yl)methyl)-4H-1,2,4-triazol-3-yl)propane-2-sulfonamide] | 120
COc1cccc(-c2nnc(NS(=O)(=O)[C@@H](C)[C@H](C)c3ncc(Cl)cn3)n2[C@@H](C)c2ccon2)n1 (racemic) [Example 267.0, (2S,3R)-3-(5-chloropyrimidin-2-yl)-N-(4-((R)-1-(isoxazol-3-yl)ethyl)-5-(6-methoxypyridin-2-yl)-4H-1,2,4-triazol-3-yl)butane-2-sulfonamide or (2S,3R)-3-(5-chloropyrimidin-2-yl)-N-(4-((S)-1-(isoxazol-3-yl)ethyl)-5-(6-methoxypyridin-2-yl)-4H-1,2,4-triazol-3-yl)butane-2-sulfonamide] | 4.2
COc1cccc(-c2nnc(NS(=O)(=O)[C@@H](C)[C@H](C)c3ncc(Cl)cn3)n2[C@@H](C)c2ccon2)n1 (racemic) [Example 268.0, (2S,3R)-3-(5-chloropyrimidin-2-yl)-N-(4-((R)-1-(isoxazol-3-yl)ethyl)-5-(6-methoxypyridin-2-yl)-4H-1,2,4-triazol-3-yl)butane-2-sulfonamide or (2S,3R)-3-(5-chloropyrimidin-2-yl)-N-(4-((S)-1-(isoxazol-3-yl)ethyl)-5-(6-methoxypyridin-2-yl)-4H-1,2,4-triazol-3-yl)butane-2-sulfonamide] | 2.7

From patent publication US10689367B2, “Triazole pyridyl compounds as agonists of the APJ receptor” (AMGEN INC., priority 2016, dated 2020)
